{
  "source": "patent US20250304623A1",
  "about": "“PEPTIDES FOR INTRACELLULAR DELIVERY” (UNIVERSIDADE DE SANTIAGO DE COMPOSTELA, priority 2022, published 2025)",
  "format_in_all_cases": "cell-based",
  "key": {"HCT116 cells": {"tested_on": "HCT116 cells", "assay": "RLuc pDNA delivery, robotic library screening, HCT116"}, "[1]": {"tested_on": "ARPE19 cells expressing EGFP", "assay": "EGFP-targeting siRNA delivery (GFP silencing vs siMOCK), ARPE19", "outline": "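This siRNA delivery assay used stably EGFP-expressing cells seeded a day ahead in 96-well plates. siGFP and amphiphile were combined in DMEM at a constant 30 nM siRNA, incubated 30 min at room temperature, then applied for 4 h before switching to fresh DMEM with 10% FBS. After 72 h, a plate reader measured fluorescence decrease relative to non-targeting siMOCK, subtracting untreated background.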"}, "[2]": {"tested_on": "ARPE19 cells expressing EGFP", "assay": "Cas9-RNP delivery against EGFP (gene editing, plate reader), ARPE19", "conditions": "Dodecanal", "outline": "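EGFP-expressing cells, generated by stable transfection with EGFP pDNA and G-418 selection, were plated in 96-well plates at 50,000 cell/mL (100 μL/w) in DMEM+10% FBS+1% Gln-Abt. Cas9-RNP targeting EGFP was complexed with amphiphile for 30 min, applied for 4 h at 50 nM RNP, and EGFP fluorescence was read on a plate reader after 72 h.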"}, "[3]": {"tested_on": "A549 cells expressing EGFP", "assay": "EGFP-targeting siRNA delivery (GFP silencing vs siMOCK), A549", "conditions": "A549 cells"}, "[4]": {"tested_on": "HepG2 cells expressing EGFP", "assay": "EGFP-targeting siRNA delivery (GFP silencing vs siMOCK), HepG2", "conditions": "Myristoleyl", "outline": "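After 72 h, a plate reader measured EGFP fluorescence in HepG2 EGFP cells transfected with amphiphile/siRNA complexes (30 nM siGFP). Silencing was expressed as percent fluorescence decrease relative to cells given non-targeting siMOCK, with untreated-cell background subtracted. Triplicate means were reported, and Lipofectamine RNAiMAX served as a comparison.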"}, "[5]": {"tested_on": "HepG2 cells expressing EGFP", "assay": "Cas9-RNP delivery against EGFP (gene editing, plate reader), HepG2", "outline": "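Gene editing in EGFP-expressing HepG2 cells was estimated as the percentage drop in GFP fluorescence, measured in triplicate on a plate reader 72 h after Cas9-RNP delivery with amphiphiles. The RNP was made from annealed crRNA/tracrRNA plus 4 μM Cas9 and complexed with amphiphile before a 4 h exposure. Background from untreated control cells was subtracted.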"}, "ARPE19 cells": {"tested_on": "ARPE19 cells", "assay": "RLuc pDNA delivery, robotic library screening, ARPE19", "conditions": "Myristoleyl"}},
  "note": "*: point of attachment. NHNH2 = NN*",
  "data": [
    {"substance": "Ac-RK*LRRLLRK*-NH2 (Ac-RK(NHNH2)LRRLLRK(NHNH2)-NH2; not fully specified; printed as Ac-RK*LRRLLRK*-NH2; also: K*2,K*9: native or modified lysine (ε-amide to a linker)) [Peptide 9.2]", "values": [
      {"measurement": "mean luminescent intensity (RLuc pDNA)", "setting": "HCT116 cells; Dodecanal, 10 μM", "result": 819, "unit": "RLU"},
      {"measurement": "mean luminescent intensity (RLuc pDNA)", "setting": "HCT116 cells; Dodecanal, 15 μM", "result": 1099, "unit": "RLU"},
      {"measurement": "mean luminescent intensity (RLuc pDNA)", "setting": "HCT116 cells; Myristoleyl, 5 μM", "result": "−544", "unit": "RLU"},
      {"measurement": "mean luminescent intensity (RLuc pDNA)", "setting": "HCT116 cells; Myristoleyl, 10 μM", "result": "−623", "unit": "RLU"},
      {"measurement": "mean luminescent intensity (RLuc pDNA)", "setting": "HCT116 cells; Myristoleyl, 15 μM", "result": "−617", "unit": "RLU"},
      {"measurement": "percentage of GFP-silencing relative to siMOCK", "setting": "[1]; Dodecanal, 5 μM", "result": 13, "unit": "%"},
      {"measurement": "percentage of GFP-silencing relative to siMOCK", "setting": "[1]; Dodecanal, 10 μM", "result": 34, "unit": "%"},
      {"measurement": "percentage of GFP-silencing relative to siMOCK", "setting": "[1]; Dodecanal, 15 μM", "result": 30, "unit": "%"},
      {"measurement": "percentage of GFP-silencing relative to siMOCK", "setting": "[1]; Myristoleyl, 5 μM", "result": 24, "unit": "%"},
      {"measurement": "percentage of gene editing, GFP fluorescence intensity decrease (% of reduction)", "setting": "[2]; 5 μM", "result": "−2", "unit": "%"},
      {"measurement": "percentage of gene editing, GFP fluorescence intensity decrease (% of reduction)", "setting": "[2]; 15 μM", "result": "−17", "unit": "%"},
      {"measurement": "percentage of GFP-silencing relative to siMOCK", "setting": "[3]; Dodecanal, 5 μM", "result": 32, "unit": "%"},
      {"measurement": "percentage of GFP-silencing relative to siMOCK", "setting": "[3]; Dodecanal, 10 μM", "result": 29, "unit": "%"},
      {"measurement": "percentage of GFP-silencing relative to siMOCK", "setting": "[3]; Dodecanal, 15 μM", "result": 16, "unit": "%"},
      {"measurement": "percentage of GFP-silencing relative to siMOCK", "setting": "[3]; Myristoleyl, 5 μM", "result": "−1", "unit": "%"},
      {"measurement": "percentage of GFP-silencing relative to siMOCK", "setting": "[3]; Myristoleyl, 10 μM", "result": "−6", "unit": "%"},
      {"measurement": "percentage of GFP-silencing relative to siMOCK", "setting": "[3]; Myristoleyl, 15 μM", "result": "−14", "unit": "%"},
      {"measurement": "percentage of GFP-silencing relative to siMOCK", "setting": "[4]; 5 μM", "result": "−22", "unit": "%"},
      {"measurement": "percentage of GFP-silencing relative to siMOCK", "setting": "[4]; 15 μM", "result": "−22", "unit": "%"},
      {"measurement": "percentage of gene editing, GFP fluorescence intensity decrease (% of reduction)", "setting": "[5]; Dodecanal, 10 μM", "result": "−35", "unit": "%"},
      {"measurement": "percentage of gene editing, GFP fluorescence intensity decrease (% of reduction)", "setting": "[5]; Dodecanal, 15 μM", "result": "−35", "unit": "%"},
      {"measurement": "percentage of gene editing, GFP fluorescence intensity decrease (% of reduction)", "setting": "[5]; Myristoleyl, 10 μM", "result": "−17", "unit": "%"},
      {"measurement": "mean luminescent intensity (RLuc pDNA)", "setting": "ARPE19 cells; 5 μM", "result": "−374", "unit": "RLU"},
      {"measurement": "mean luminescent intensity (RLuc pDNA)", "setting": "ARPE19 cells; 10 μM", "result": "−528", "unit": "RLU"},
      {"measurement": "mean luminescent intensity (RLuc pDNA)", "setting": "ARPE19 cells; 15 μM", "result": "−547", "unit": "RLU"}
    ]}
  ]
}
